Changes are numbered by the printed parent chain.
Assays:
[1] = molecular target: Casein kinase I isoform epsilon (Homo sapiens) (UniProt P49674); assay: Binding affinity to wild type human CK1epsilon (1-294 amino acids) assessed as change in melting temperature by differential scanning fluorimetry
[2] = test system: T1, Casein kinase I isoform delta (Homo sapiens), P48730 [R69K]; assay: Binding affinity to human CK1delta R69K mutant assessed as change in melting temperature by differential scanning fluorimetry
T1 sequence (whole entry): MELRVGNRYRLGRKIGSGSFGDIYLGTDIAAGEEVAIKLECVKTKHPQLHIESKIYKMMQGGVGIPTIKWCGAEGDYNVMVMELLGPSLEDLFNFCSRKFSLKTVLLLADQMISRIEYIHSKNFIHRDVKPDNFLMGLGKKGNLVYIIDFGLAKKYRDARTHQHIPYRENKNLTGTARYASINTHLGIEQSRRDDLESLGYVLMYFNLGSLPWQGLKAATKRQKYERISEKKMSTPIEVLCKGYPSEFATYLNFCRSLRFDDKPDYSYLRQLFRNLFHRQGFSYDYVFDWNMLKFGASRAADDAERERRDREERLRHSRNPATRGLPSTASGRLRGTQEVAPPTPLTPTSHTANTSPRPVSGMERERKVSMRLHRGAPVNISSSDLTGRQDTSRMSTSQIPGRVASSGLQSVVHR

[3] = molecular target: Casein kinase I isoform delta (Homo sapiens) (UniProt P48730); assay: Binding affinity to wild type human CK1delta (1-294 amino acids) assessed as change in melting temperature by differential scanning fluorimetry
[4] = test system: T2, Casein kinase I isoform epsilon (Homo sapiens), P49674 [K69R]; assay: Binding affinity to human CK1epsilon K69R mutant assessed as change in melting temperature by differential scanning fluorimetry
T2 sequence (whole entry): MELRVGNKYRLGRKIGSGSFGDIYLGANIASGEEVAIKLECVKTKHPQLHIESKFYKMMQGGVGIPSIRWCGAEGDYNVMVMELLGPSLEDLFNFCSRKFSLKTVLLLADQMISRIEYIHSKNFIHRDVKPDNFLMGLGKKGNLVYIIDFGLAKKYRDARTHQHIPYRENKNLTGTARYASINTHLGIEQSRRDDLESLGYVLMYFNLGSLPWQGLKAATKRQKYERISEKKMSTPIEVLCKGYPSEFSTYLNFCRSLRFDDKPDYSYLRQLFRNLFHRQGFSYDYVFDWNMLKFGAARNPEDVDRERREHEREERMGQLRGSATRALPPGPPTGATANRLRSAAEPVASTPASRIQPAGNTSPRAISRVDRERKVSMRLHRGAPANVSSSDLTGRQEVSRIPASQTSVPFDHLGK

[5] = test system: T3, Casein kinase I isoform delta (Homo sapiens), P48730 [I55F]; assay: Binding affinity to human CK1delta I55F mutant assessed as change in melting temperature by differential scanning fluorimetry
T3 sequence (whole entry): T1 sequence (whole entry) with I55F, K69R

[6] = test system: T4, Casein kinase I isoform epsilon (Homo sapiens), P49674 [F55I]; assay: Binding affinity to human CK1epsilon F55I mutant assessed as change in melting temperature by differential scanning fluorimetry
T4 sequence (whole entry): T2 sequence (whole entry) with F55I, R69K

[7] = test system: T5, Casein kinase I isoform epsilon (Homo sapiens), P49674 [S67T]; assay: Binding affinity to human CK1epsilon S67T mutant assessed as change in melting temperature by differential scanning fluorimetry
T5 sequence (whole entry): T2 sequence (whole entry) with S67T, R69K

[8] = test system: T6, Casein kinase I isoform delta (Homo sapiens), P48730 [T67S]; assay: Binding affinity to human CK1delta T67S mutant assessed as change in melting temperature by differential scanning fluorimetry
T6 sequence (whole entry): T1 sequence (whole entry) with T67S, K69R

Casein kinase I isoform epsilon (Homo sapiens), sequence (P49674 whole entry, looked up, the tested form may be a part, canonical isoform): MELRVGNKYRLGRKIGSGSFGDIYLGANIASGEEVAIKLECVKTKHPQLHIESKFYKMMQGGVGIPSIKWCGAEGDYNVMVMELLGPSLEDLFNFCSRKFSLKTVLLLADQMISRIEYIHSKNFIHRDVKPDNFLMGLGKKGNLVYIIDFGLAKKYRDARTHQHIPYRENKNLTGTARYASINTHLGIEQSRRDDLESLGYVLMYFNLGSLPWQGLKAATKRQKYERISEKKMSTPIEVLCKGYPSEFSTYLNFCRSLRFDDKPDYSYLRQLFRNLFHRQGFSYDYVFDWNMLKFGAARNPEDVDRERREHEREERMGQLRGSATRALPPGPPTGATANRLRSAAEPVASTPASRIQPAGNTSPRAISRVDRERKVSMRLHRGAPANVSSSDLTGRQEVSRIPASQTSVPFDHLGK
Casein kinase I isoform delta (Homo sapiens), sequence (P48730 whole entry, looked up, the tested form may be a part, canonical isoform): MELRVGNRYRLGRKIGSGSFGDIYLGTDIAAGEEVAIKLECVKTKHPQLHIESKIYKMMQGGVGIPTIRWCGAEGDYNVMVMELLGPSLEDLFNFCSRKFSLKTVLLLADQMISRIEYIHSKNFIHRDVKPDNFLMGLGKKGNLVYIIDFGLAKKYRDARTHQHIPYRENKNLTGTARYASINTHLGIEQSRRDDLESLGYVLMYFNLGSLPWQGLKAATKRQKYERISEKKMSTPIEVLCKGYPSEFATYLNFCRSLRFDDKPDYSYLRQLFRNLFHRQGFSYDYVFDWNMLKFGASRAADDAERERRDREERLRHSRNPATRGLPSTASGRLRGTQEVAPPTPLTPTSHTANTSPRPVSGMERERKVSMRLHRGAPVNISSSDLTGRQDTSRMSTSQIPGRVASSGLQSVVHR

| Structure (SMILES) | ΔTm [1] [°C] | ΔTm [2] [°C] | ΔTm [3] [°C] | ΔTm [4] [°C] | ΔTm [5] [°C] | ΔTm [6] [°C] | ΔTm [7] [°C] | ΔTm [8] [°C] |
| --- | --- | --- | --- | --- | --- | --- | --- | --- |
| Nc1ncnc2c1c(COc1cccc(Cl)c1)nn2C1CCOCC1 | 11.5 | 4.8 | 4.8 | 11.5 | 13.2 | 6.4 | 11.5 | 4.8 |
| Nc1nccc(-c2c(-c3ccc(F)cc3)ncn2C2CCCCC2)n1 | 8.6 | 9.6 | 9.6 | 8.6 | 9.6 | 10.4 | 8.6 | 9.6 |
